Data: PMC8069510, “Synthesis and Evaluation of Novel 2,2-Dimethylthiochromanones as Anti-Leishmanial Agents” (Molecules, 2021)
Read-outs that look alike come from different tables or passages of the source.

What was measured:
[1] = system: L. infantum axenic amastigotes; assay: Antileishmanial activity on L. infantum axenic amastigotes (luciferase luminescence); format: cell-based, Leishmania infantum; conditions: for S.I. (Selectivity Index) = CC50/IC50: CC50 J774A.1 / IC50 L. infantum axenic amastigotes; for IC50 / activity against L. infantum (in words): axenic amastigotes; for IC50: 48 h incubation, mean (standard deviation), three independent experiments
Experimental: (§1) Selected compounds were evaluated for their leishmanicidal ability as previously described, through examining their activity on L. infantum axenic amastigotes, and the results are expressed in Table 2 as IC50 values. In parallel, evaluation of the cytotoxicity of test compounds was performed by MTT assay using the J774A.1 macrophage cell line. Results are presented as CC50 values.
4.2. Bioassay Procedures: Antileishmanial Activity on L. infantum Axenic Amastigotes
L. infantum promastigotes (MHOM/MA/67/ITMAP-263, CNR Leishmania, Montpellier, France, expressing luciferase activity) were cultivated in RPMI 1640 medium supplemented with 10% foetal calf serum (FCS), 2 mM L-glutamine and antibiotics (100 U/mL penicillin and 100 μg/mL streptomycin) and harvested in the logarithmic phase of growth by centrifugation at 900× g for 10 min. The supernatant was carefully removed and replaced by the same volume of RPMI 1640 complete medium at pH 5.4, and then incubated for 24 h at 24 °C. The acidified promastigotes were then incubated for 24 h at 37 °C in a ventilated flask to transform promastigotes into axenic amastigotes. The effects of the tested compounds on the growth of L. infantum axenic amastigotes were assessed as follows. L. infantum amastigotes were incubated at a density of 2 × 10^6 parasites/mL in sterile 96-well plates with various concentrations of compounds dissolved in DMSO (final concentration less than 0.5% v/v), in duplicate. Appropriate controls, DMSO and amphotericin, were added to each set of experiments. After a 48 h incubation period at 37 °C, each plate-well was then microscopically examined to detect any precipitate formation. To estimate the luciferase activity of axenic amastigotes, 80 μL of each well were transferred to white 96-well plates, Steady Glow® reagent (Promega, Charbonnières-les-Bains, France) was added according to the manufacturer’s instructions, and plates were incubated for 2 min. The luminescence was measured using a Microbeta Luminescence Counter (Perkin Elmer, Villebon-sur-Yvette, France). The inhibitory concentration 50% (IC50) was defined as the concentration of drug required to inhibit by 50% the metabolic activity of L. infantum amastigotes compared to control. IC50 values were calculated by non-linear regression analysis on dose response curves, using the TableCurve 2D V5 software (Systat Software, San Jose, CA, USA). IC50 values represent the mean of three independent experiments.

[2] = Cytotoxicity by MTT assay on J774A.1 macrophage cell line; format: cell-based, mouse; conditions: mouse, J774A.1 macrophage cells; MTT, 72 h incubation; mean (standard deviation)
Experimental: as §1
(§2) 4.3. Cytotoxicity Evaluation on J774A.1 Cells
(§3) Evaluation of the cytotoxicity of test compounds was performed by MTT assay using the J774A.1 cell line (mouse macrophage cell line, Sigma-Aldrich). Briefly, cells (5 × 10^4 cells/mL) in 100 µL of complete medium, [DMEM High glucose supplemented with 10% fetal calf serum (FCS), 2 mM L-glutamine and antibiotics (100 U/mL penicillin and 100 µg/mL streptomycin)] were seeded into each well of 96-well plates and incubated at 37 °C in a humidified 5% CO2 with 95% air atmosphere. After a 24 h incubation, 100 µL of medium with various product concentrations and appropriate controls were added and the plates were incubated for 72 h at 37 °C. Each plate-well was then examined under the microscope to detect possible precipitate formation before the medium was aspirated from the wells. 100 µL of MTT solution (0.5 mg/mL in RPMI) was then added to each well. Cells were incubated for 2 h at 37 °C. After this time, the MTT solution was removed and DMSO (100 µL) was added to dissolve the resulting formazan crystals. Plates were shaken vigorously (300 rpm) for 5 min. The absorbance was measured at 570 nm with a microplate spectrophotometer. DMSO was used as blank and doxorubicin (Sigma Aldrich, Saint-Quentin-Fallavier, France) as positive control. CC50 values were calculated by non-linear regression analysis on dose–response curves, using the TableCurve 2D V5 software.

L. pifanoi = system: L. pifanoi; set-up: method as in PMID 32734890; conditions: topical application, co-formulated with saponins; cited from earlier work
L. braziliensis = system: L. braziliensis; set-up: method as in PMID 32734890; conditions: topical application, co-formulated with saponins; cited from earlier work
L. (V) panamensis = conditions: read-out: EC50 against L. (V) panamensis, cited from earlier work
[3] = system: axenic amastigotes of L. infantum; set-up: method as in PMID 32258470; conditions: cited from earlier work
[4] = system: intracellular amastigotes of L. infantum; set-up: method as in PMID 32258470; conditions: cited from earlier work
[5] = set-up: method as in PMID 29286346; conditions: cited from earlier work
J774A.1 cells = assay: Cytotoxicity by MTT assay on J774A.1 macrophage cell line; format: cell-based, mouse
Experimental: as §1, §2, §3

[6] = system: amastigotes of Trypanosoma cruzi; set-up: method as in PMID 29935351; conditions: cited from earlier work
[7] = system: amastigotes of L. infantum; set-up: method as in PMID 29935351; conditions: cited from earlier work

Row | Compound | S.I. (Selectivity Index) = CC50/IC50 [1] | IC50 ([1]; Leishmania infantum) | CC50 at 72 h [2] | also measured
1 | CCCCCCCC(=O)NCc1ccc2c(c1)C(=O)CC(C)(C)S2 [Compound 11d, N-((2,2-Dimethyl-4-oxothiochroman-6-yl)methyl)octanamide] | 2.68 | 51.3 µM | 137 µM | –
2 | CC1(C)CC(=O)c2cc(COC(=O)/C=C/C=C/c3ccc4c(c3)OCO4)ccc2S1 [Compound 10b, (2,2-Dimethyl-4-oxothiochroman-6-yl)methyl (2E,4E)-5-(benzo[d][1,3]dioxol-5-yl)penta-2,4-dienoate] | 0.25 | 91.3 µM | 22.5 µM | –
3 | CC1(C)CC(=O)c2cc(CNC(=O)/C=C/C=C/c3ccc4c(c3)OCO4)ccc2S1 [Compound 11c, (2E,4E)-5-(Benzo[d][1,3]dioxol-5-yl)-N-((2,2-dimethyl-4-oxothiochroman-6-yl)methyl)penta-2,4-dienamide] | – | > 119 µM | > 119 µM | activity against L. infantum (in words) [1]: devoid of activity
4 | CC1(C)CC(=O)c2cc(CNC(=O)C/C=C/c3ccccc3)ccc2S1 [Compound 11a, (E)-N-((2,2-Dimethyl-4-oxothiochroman-6-yl)methyl)-4-phenylbut-3-enamide] | 3.01 | 10.5 µM | 31.6 µM | activity against L. infantum (in words) [1]: notable anti-leishmanial activity
5 | CCCCCCNCc1ccc2c(c1)C(=O)CC(C)(C)S2 [Compound 12b, 6-((Hexylamino)methyl)-2,2-dimethylthiochroman-4-one] | 1.12 | 23.1 µM | 25.8 µM | –
6 | CCCCCCCCNCc1ccc2c(c1)C(=O)CC(C)(C)S2 [Compound 12c, 2,2-Dimethyl-6-((octylamino)methyl)thiochroman-4-one] | 1.16 | 19.5 µM | 22.6 µM | –
7 | CCCCNCc1ccc2c(c1)C(=O)CC(C)(C)S2 [Compound 12a, 6-((Butylamino)methyl)-2,2-dimethylthiochroman-4-one] | 1.25 | 26.5 µM | 33.2 µM | –
8 | CC1(C)CC(=O)c2cc(COC(=O)C/C=C/c3ccccc3)ccc2S1 [Compound 10a, (2,2-Dimethyl-4-oxothiochroman-6-yl)methyl (E)-4-phenylbut-3-enoate] | >3.97 | 34.4 µM | > 136 µM | –
9 | CCCCCCCCNCc1ccc2c(c1)C(=O)CC(C)(C)S2(=O)=O [Compound 14, 2,2-Dimethyl-6-((octylamino)methyl)thiochroman-4-one 1,1-dioxide] | 1.27 | 33.8 µM | 42.8 µM | –
10 | O=C(N/N=C1\CCSc2ccccc21)c1ccccc1 [Compound 8] | – | – | – | effect on parasite survival and infectivity (in words) (L. pifanoi): very effective; effect on parasite survival and infectivity (in words) (L. braziliensis): very effective
11 | O=C1C=C(c2ccc(C(F)(F)F)cc2)S(=O)(=O)c2ccc(F)cc21 [Compound 6] | – | – | – | EC50 (L. (V) panamensis): < 10 µM
12 | COc1cccc2c1C(=O)c1c(O)c3c(c(O)c1C2=O)C[C@@](O)(C(=O)CO)C[C@@H]3O[C@H]1C[C@H](N)[C@H](O)[C@H](C)O1 [Doxorubicin, reference compound] | – | – | 0.047 µM | –
13 | CCCCCCCCCCNCc1ccc2c(c1)C(=O)CC(C)(C)S2 [Compound 12d, 2,2-Dimethyl-6-((decylamino)methyl)thiochroman-4-one] | 1.86 | 12.4 µM | 23.1 µM | –
14 | CCCCCCCCNCc1ccc2c(c1)C(=O)CC(C)(C)O2 [Compound 3] | – | – | – | IC50 [3]: 25.3 µM; IC50 [4]: 24.6 µM
15 | NC(=S)N/N=C1\CC(c2ccccc2)Sc2ccccc21 (stereo not shown) [Compound 7] | – | – | – | cytotoxicity (in words) [5]: low cytotoxicity; EC50 (L. (V) panamensis; acyl hydrazone derivatives): 5.1 µM
16 | C[C@@H]1[C@H](O)[C@@H](C)/C=C/C=C/C=C/C=C/C=C/C=C/C=C/[C@H](O[C@@H]2O[C@H](C)[C@@H](O)[C@H](N)[C@@H]2O)C[C@@H]2O[C@](O)(C[C@@H](O)C[C@@H](O)[C@H](O)CC[C@@H](O)C[C@@H](O)CC(=O)O[C@H]1C)C[C@H](O)[C@H]2C(=O)O [Amphotericin B, reference compound] | – | 0.072 µM | – | –
17 | (2,2-Dimethyl-4-oxothiochroman-6-yl)methyl-6-phenylhex-5-enoate [Compound 11b] | – | – | – | IC50 [1]: 19.9 µM; cytotoxicity to macrophages (in words) (J774A.1 cells; J774A.1, compared with activity against axenic amastigotes): comparably cytotoxic to macrophages; CC50 (J774A.1 cells; MTT, 72 h incubation, mean (standard deviation)): 14 µM
18 | CC1(C)CC(=O)c2cc(CNC(=O)CCCCCCCCBr)ccc2S1 [Compound 11e, 9-Bromo-N-((2,2-dimethyl-4-oxothiochroman-6-yl)methyl)nonanamide] | 8.06 | 7.2 µM | 58 µM | activity against L. infantum (in words) [1]: notable anti-leishmanial activity
19 | CCCCCCCCNCc1ccc2c(c1)C(=O)CC(C)(C)[S+]2[O-] (stereo not shown) [Compound 13, 2,2-Dimethyl-6-((octylamino)methyl)thiochroman-4-one 1-oxide] | 1.22 | 33.4 µM | 40.9 µM | –
20 | CCCCCCCCNCc1ccc(OC)cc1 [Compound 5] | – | – | – | IC50 [6]: 5.8 µM; IC50 [7]: 1.3 µM
